Experimental data as given in US20260297080A1, “BICYCLIC COMPOUNDS AS CDK INHIBITORS” (BeOne Medicines I GmbH, priority 2022, published 2026).
pIC50: −log10 of the molar value.

Columns and labels:
CDK2/Cyclin E1 = CDK2/Cyclin E1 (Homo sapiens, UniProt P24941); experiment: CDK2/Cyclin E1 Biochemical Assay (TR-FRET), 1 mM ATP; conditions: 0.15 μM Rb (Ser780)-biotin substrate, pH7.0, 60 min preincubation, 90 min reaction, room temperature
Experimental: (§1) CDK2/Cyclin E1 and CDK1/Cyclin B1 Biochemical Assays
(§2) Compounds disclosed herein were tested for inhibition of CDK2/Cyclin E1 or CDK1/Cyclin B1 kinase in an assay based on the time-resolved fluorescence-resonance energy transfer (TR-FRET) methodology. The assay was carried out in 384-well low volume black plates in a reaction mixture containing CDK2/Cyclin E1 or CDK1/Cyclin B1, 1 mM ATP for CDK2/Cyclin E1 and CDK1/Cyclin B1, 0.15 μM Rb (Ser780)-biotin substrate and 0-10 μM compound in buffer containing 50 mM HEPES pH7.0, 0.02% NaN3, 0.01% BSA, 0.1 mM Orthovanadate, 50 mM MgCl2, 1 mM DTT and 0.005% Tween-20. The kinase was incubated with compound for 60 minutes at room temperature and the reaction was initiated by the addition of ATP and Rb (Ser780)-biotin substrate. After reaction at room temperature for 90 minutes, an equal volume of stop/detection solution was added according to the manufacture's instruction (Cisbio Bioassays). The stop/detection solution contained Streptavidin-XL665 and Anti-pRb (Ser780) mAb-Eu Cryptate in Detection buffer (Cisbio Bioassays). Plates were incubated at room temperature for 60 minutes, and the TR-FRET signals (ex337 nm, em665 nm/620 nm) were recorded on a PHERAstar FSX plate reader (BMG Labtech). The inhibition percentage of CDK2/Cyclin E1 or CDK1/Cyclin B1 kinase activity in presence of increasing concentrations of compounds was calculated based on the ratio of fluorescence at 665 nm to that at 620 nm. The IC50 for each compound was derived from fitting the data to the four-parameter logistic equation by Dotmatics.

CDK1/Cyclin B1 = CDK1/Cyclin B1 (Homo sapiens, UniProt P06493); experiment: CDK1/Cyclin B1 Biochemical Assay (TR-FRET), 1 mM ATP; conditions: 0.15 μM Rb (Ser780)-biotin substrate, pH7.0, 60 min preincubation, 90 min reaction, room temperature
Experimental: as §1, §2

CDK1/Cyclin B1, sequence (P06493 whole entry): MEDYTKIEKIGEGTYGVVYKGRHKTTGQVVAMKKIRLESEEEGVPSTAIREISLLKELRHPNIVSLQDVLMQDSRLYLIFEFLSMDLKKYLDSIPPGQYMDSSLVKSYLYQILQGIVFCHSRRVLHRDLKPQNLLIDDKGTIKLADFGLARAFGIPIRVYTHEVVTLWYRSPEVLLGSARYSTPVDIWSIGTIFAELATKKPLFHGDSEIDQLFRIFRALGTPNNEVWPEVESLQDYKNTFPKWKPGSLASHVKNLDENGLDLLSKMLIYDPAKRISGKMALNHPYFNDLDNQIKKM
CDK1/Cyclin B1, sequence (P14635 whole entry partner): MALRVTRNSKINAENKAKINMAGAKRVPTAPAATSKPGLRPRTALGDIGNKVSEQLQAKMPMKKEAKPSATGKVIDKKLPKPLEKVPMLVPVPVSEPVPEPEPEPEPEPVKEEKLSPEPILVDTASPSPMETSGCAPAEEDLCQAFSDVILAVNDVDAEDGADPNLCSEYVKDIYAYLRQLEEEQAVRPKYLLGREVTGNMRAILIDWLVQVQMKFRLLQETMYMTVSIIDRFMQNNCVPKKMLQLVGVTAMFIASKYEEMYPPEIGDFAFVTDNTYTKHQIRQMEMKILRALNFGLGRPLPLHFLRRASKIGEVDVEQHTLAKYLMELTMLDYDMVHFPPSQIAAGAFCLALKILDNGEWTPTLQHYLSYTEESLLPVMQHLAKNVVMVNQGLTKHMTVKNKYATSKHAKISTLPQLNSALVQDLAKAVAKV

Compound | pIC50 (CDK2/Cyclin E1) | pIC50 (CDK1/Cyclin B1)
CC(C)(O)CN1c2ccc(Nc3cc([C@@H]4CC[C@H](OC(=O)NC5(C)CC5)C4)[nH]n3)c(F)c2CS1(=O)=O (relative stereo) [Example 435, cis-3-(3-((4-fluoro-1-(2-hydroxy-2-methylpropyl)-2,2-dioxido-1,3-dihydrobenzo[c]isothiazol-5-yl)amino)-1H-pyrazol-5-yl)cyclopentyl(1-methylcyclopropyl)carbamate] | 8.89 | 6.37
CC1(NC(=O)O[C@@H]2CC[C@H](c3cc(Nc4ccc5c(c4F)CS(=O)(=O)N5)n[nH]3)C2)CCC1 (single isomer, unassigned) [Example 427a] | 8.96 | 6.84
CC(C)NC(=O)O[C@H]1CC[C@@H](c2cc(Nc3ccc4c(c3F)NS(=O)(=O)N4)n[nH]2)C1 (relative stereo) [Example 465, cis-3-(3-((4-fluoro-2,2-dioxido-1,3-dihydrobenzo[c][1,2,5]thiadiazol-5-yl)amino)-1H-pyrazol-5-yl)cyclopentyl isopropylcarbamate] | 7.74 | 5.31
CC(C)NC(=O)O[C@H]1CC[C@@H](c2cc(Nc3cc4c(cn3)S(=O)(=O)NC4)n[nH]2)C1 (relative stereo) [Example 425, cis-3-(3-((1,1-dioxido-2,3-dihydroisothiazolo[5,4-c]pyridin-5-yl)amino)-1H-pyrazol-5-yl)cyclopentyl isopropylcarbamate] | 5.71 | < 5.00
CC(C)NC(=O)O[C@H]1CC[C@@H](c2cc(Nc3ccc4c(c3F)NS(=O)(=O)N4C)n[nH]2)C1 (relative stereo) [Example 467, cis-3-(3-((4-fluoro-1-methyl-2,2-dioxido-1,3-dihydrobenzo[c][1,2,5]thiadiazol-5-yl)amino)-1H-pyrazol-5-yl)cyclopentyl isopropylcarbamate] | 6.28 | < 5.00
CC(C)NC(=O)O[C@@H]1CC[C@H](c2cc(Nc3ccc4c(c3F)CCS(=O)(=O)N4)n[nH]2)C1 (single isomer, unassigned) [Example 430a] | 8.44 | 5.75
CC(C)(C)NC(=O)O[C@@H]1CC[C@H](c2cc(Nc3ccc4c(c3F)CCS(=O)(=O)N4)n[nH]2)C1 [Example 464, (1R,3S)-3-(3-((5-fluoro-2,2-dioxido-3,4-dihydro-1H-benzo[c][1,2]thiazin-6-yl)amino)-1H-pyrazol-5-yl)cyclopentyl tert-butylcarbamate] | 9.10 | 6.49
CCCNC(=O)O[C@@H]1CC[C@H](c2cc(Nc3ccc4c(c3F)CS(=O)(=O)N4CC(C)(C)O)n[nH]2)C1 [Example 433a] | 7.74 | 5.51
CCCNC(=O)O[C@H]1CC[C@@H](c2cc(Nc3ccc4c(c3F)CS(=O)(=O)N4CC(C)(C)O)n[nH]2)C1 [Example 433b] | 7.74 | 5.84
CC(C)(C)NC(=O)O[C@H]1CC[C@@H](c2cc(Nc3ccc4c(c3F)CCS(=O)(=O)N4)n[nH]2)C1 [Example 463, (1S,3R)-3-(3-((5-fluoro-2,2-dioxido-3,4-dihydro-1H-benzo[c][1,2]thiazin-6-yl)amino)-1H-pyrazol-5-yl)cyclopentyl tert-butylcarbamate] | 9.40 | 6.85
O=C(NC1CCOC1)O[C@H]1CC[C@@H](c2cc(Nc3ccc4c(c3F)CS(=O)(=O)N4)n[nH]2)C1 (relative stereo) [Example 431, cis-3-(3-((4-fluoro-2,2-dioxido-1,3-dihydrobenzo[c]isothiazol-5-yl)amino)-1H-pyrazol-5-yl)cyclopentyl(tetrahydrofuran-3-yl)carbamate] | 7.38 | < 5.00
CC(C)(C)NC(=O)O[C@H]1CC[C@@H](c2cc(Nc3ccc4c(c3F)CS(=O)(=O)N4)n[nH]2)C1 (relative stereo) [Example 423, cis-3-(3-((4-fluoro-2,2-dioxido-1,3-dihydrobenzo[c]isothiazol-5-yl)amino)-1H-pyrazol-5-yl)cyclopentyl tert-butylcarbamate] | 8.57 | 6.60
O=C(NC12CC(C1)C2)O[C@H]1CC[C@@H](c2cc(Nc3ccc4c(c3F)CS(=O)(=O)N4)n[nH]2)C1 (relative stereo) [Example 448, cis-3-(3-((4-fluoro-2,2-dioxido-1,3-dihydrobenzo[c]isothiazol-5-yl)amino)-1H-pyrazol-5-yl)cyclopentyl bicyclo[1.1.1]pentan-1-ylcarbamate] | 8.96 | 7.19
CC(C)NC(=O)O[C@H]1CC[C@@H](c2cc(Nc3ccc4c(c3F)N(C)S(=O)(=O)N4C)n[nH]2)C1 (relative stereo) [Example 458, cis-3-(3-((4-fluoro-1,3-dimethyl-2,2-dioxido-1,3-dihydrobenzo[c][1,2,5]thiadiazol-5-yl)amino)-1H-pyrazol-5-yl)cyclopentyl isopropylcarbamate] | 7.92 | 5.46
O=C(NCC1CC1)O[C@H]1CC[C@@H](c2cc(Nc3cc4c(cc3F)S(=O)(=O)NC4)n[nH]2)C1 (relative stereo) [Example 420, cis-3-(3-((6-fluoro-1,1-dioxido-2,3-dihydrobenzo[d]isothiazol-5-yl)amino)-1H-pyrazol-5-yl)cyclopentyl(cyclopropylmethyl)carbamate] | 7.62 | 5.26
CC1(NC(=O)O[C@H]2CC[C@@H](c3cc(Nc4cc5c(cc4F)S(=O)(=O)NC5)n[nH]3)C2)COC1 (relative stereo) [Example 451, cis-3-(3-((6-fluoro-1,1-dioxido-2,3-dihydrobenzo[d]isothiazol-5-yl)amino)-1H-pyrazol-5-yl)cyclopentyl(3-methyloxetan-3-yl)carbamate] | 8.00 | 5.15
CC(C)(CO)NC(=O)O[C@H]1CC[C@@H](c2cc(Nc3ccc4c(c3F)CN(C3CC3)S4(=O)=O)n[nH]2)C1 (single isomer, unassigned) [Example 359b, cis-3-(3-((2-cyclopropyl-4-fluoro-1,1-dioxido-2,3-dihydrobenzo[d]isothiazol-5-yl)amino)-1H-pyrazol-5-yl)cyclopentyl(1-hydroxy-2-methylpropan-2-yl)carbamate] | 8.15 | 5.54
CC1(NC(=O)O[C@H]2CC[C@@H](c3cc(Nc4ccc5c(c4F)CS(=O)(=O)N5)n[nH]3)C2)CCCC1 (relative stereo) [Example 439, cis-3-(3-((4-fluoro-2,2-dioxido-1,3-dihydrobenzo[c]isothiazol-5-yl)amino)-1H-pyrazol-5-yl)cyclopentyl(1-methylcyclopentyl)carbamate] | 8.57 | 6.67
O=C(NC12CC(C1)C2)O[C@H]1CC[C@@H](c2cc(Nc3cc4c(cc3F)S(=O)(=O)NC4)n[nH]2)C1 (single isomer, unassigned) [Example 422b, cis-3-(3-((6-fluoro-1,1-dioxido-2,3-dihydrobenzo[d]isothiazol-5-yl)amino)-1H-pyrazol-5-yl)cyclopentyl bicyclo[1.1.1]pentan-1-ylcarbamate] | 9.00 | 6.01
CN(C(=O)O[C@H]1CC[C@@H](c2cc(Nc3cc4c(cc3F)S(=O)(=O)NC4)n[nH]2)C1)C1CCOC1 (relative stereo) [Example 440, cis-3-(3-((6-fluoro-1,1-dioxido-2,3-dihydrobenzo[d]isothiazol-5-yl)amino)-1H-pyrazol-5-yl)cyclopentyl methyl(tetrahydrofuran-3-yl)carbamate] | 6.72 | < 5.00
CC[C@H](C)NC(=O)O[C@H]1CC[C@@H](c2cc(Nc3ccc4c(c3F)CCS(=O)(=O)N4)n[nH]2)C1 (relative stereo) [Example 461, cis-3-(3-((5-fluoro-2,2-dioxido-3,4-dihydro-1H-benzo[c][1,2]thiazin-6-yl)amino)-1H-pyrazol-5-yl)cyclopentyl((S)-sec-butyl)carbamate] | 9.52 | 6.57
CC(C)NC(=O)O[C@H]1CC[C@@H](c2cc(Nc3ccc4c(c3F)CS(=O)(=O)N4CC(C)(C)O)n[nH]2)C1 (single isomer, unassigned) [Example 254b, cis-3-(3-((4-fluoro-1-(2-hydroxy-2-methylpropyl)-2,2-dioxido-1,3-dihydrobenzo[c]isothiazol-5-yl)amino)-1H-pyrazol-5-yl)cyclopentyl isopropylcarbamate] | 8.05 | 5.86
CC1(C)CCCN1C(=O)O[C@H]1CC[C@@H](c2cc(Nc3cc4c(cc3F)S(=O)(=O)NC4)n[nH]2)C1 (relative stereo) [Example 447, cis-3-(3-((6-fluoro-1,1-dioxido-2,3-dihydrobenzo[d]isothiazol-5-yl)amino)-1H-pyrazol-5-yl)cyclopentyl 2,2-dimethylpyrrolidine-1-carboxylate] | 8.32 | 5.89
